We go through eleven compounds from ChEMBL document CHEMBL3817806, “Novel benzimidazol-2-ylidene carbene precursors and their silver(I) complexes: Potential antimicrobial agents” (2016).

SMILES strings stand for the structures. Converted amounts (≈) assume the structure as drawn.

Common to all, as to format: functional
The subject of assay [1] is Enterococcus faecalis. Nature of the assay: Antibacterial activity against Enterococcus faecalis ATCC 29212 after 16 to 20 hrs by agar dilution method. (In general: In agar dilution the substance is mixed into plates at graded concentrations.)
For assay [2], the system named is Staphylococcus aureus. Nature of the assay: Antibacterial activity against Staphylococcus aureus ATCC 29213 after 16 to 20 hrs by agar dilution method.
For assay [3], the system named is Candida albicans. As to the kind of experiment: Antifungal activity against Candida albicans ATCC 10231 after 48 hrs by agar dilution method. The following applies: ATCC 10231, 48 h.
The test system of assay [4] is Pseudomonas aeruginosa. Nature of the assay: Antibacterial activity against Pseudomonas aeruginosa ATCC 27853 after 16 to 20 hrs by agar dilution method.
Assay [5] relates to Candida tropicalis. As to the kind of experiment: Antifungal activity against Candida tropicalis ATCC 13803 after 48 hrs by agar dilution method. The settings on record: ATCC 13803, 48 h.
For assay [6], the system named is Escherichia coli. Nature of the assay: Antibacterial activity against Escherichia coli ATCC 25922 after 16 to 20 hrs by agar dilution method.

For `CCCC[n+]1cn(CCOc2ccccc2OCC)c2ccccc21.[Br-]`, the MIC in assay [1] amounted to 50 µg/mL; in assay [2], 50 µg/mL; in assay [3], 25 µg/mL; in assay [4] it was 50 µg/mL; in assay [5], 25 µg/mL; in assay [6] it was 50 µg/mL.
On to `CCOc1ccccc1OCCn1c[n+](CCOC)c2ccccc21.[Br-]`, for which the MIC in assay [1], in assay [2], in assay [3], in assay [4], in assay [5] and in assay [6] was 800 µg/mL in each case.
`CC1(C)S[C@@H]2[C@H](NC(=O)[C@H](N)c3ccccc3)C(=O)N2[C@H]1C(=O)O` [AMPICILLIN]: the MIC in assay [1] amounted to 1.56 µg/mL (≈ 4.46 µM); in assay [2] it was 3.12 µg/mL (≈ 8.93 µM); in assay [6], 3.12 µg/mL (≈ 8.93 µM).
In the case of `OC(Cn1cncn1)(Cn1cncn1)c1ccc(F)cc1F` [FLUCONAZOLE], the MIC in assay [3] and in assay [5] was 3.12 µg/mL (≈ 10.2 µM) throughout.
With `CCOc1ccccc1OCCn1c[n+](Cc2ccc(C(C)(C)C)cc2)c2ccccc21.[Br-]`, the MIC was found to be 200 µg/mL in assay [1]; 50 µg/mL in assay [2]; 50 µg/mL in assay [3]; 400 µg/mL in assay [4]; 50 µg/mL in assay [5]; 50 µg/mL in assay [6].
As to `CCOc1ccccc1OCCn1c[n+](Cc2c(C)cc(C)cc2C)c2ccccc21.[Br-]`, the MIC was determined as 800 µg/mL in assay [1]; 50 µg/mL in assay [2]; 50 µg/mL in assay [3]; 800 µg/mL in assay [4]; 50 µg/mL in assay [5]; 50 µg/mL in assay [6].
`CCOc1ccccc1OCCn1c[n+](Cc2c(C)c(C)cc(C)c2C)c2ccccc21.[Br-]`: the MIC came to 800 µg/mL in assay [1]; 400 µg/mL in assay [2]; 400 µg/mL in assay [3]; 800 µg/mL in assay [4]; 400 µg/mL in assay [5]; 400 µg/mL in assay [6].
As to `O=C(O)c1cn(C2CC2)c2cc(N3CCNCC3)c(F)cc2c1=O` [CIPROFLOXACIN], the MIC stood at 0.78 µg/mL (≈ 2.35 µM) in assay [1], 0.39 µg/mL (≈ 1.18 µM) in assay [2] and 3.12 µg/mL (≈ 9.42 µM) in assay [4].
As for `CCOc1ccccc1OCCn1c[n+](CCOc2ccccc2OCC)c2ccccc21.[Br-]`, the MIC in assay [1] was found to be 400 µg/mL; in assay [2], 200 µg/mL; in assay [3] it was 200 µg/mL; in assay [4], 400 µg/mL; in assay [5], 200 µg/mL; in assay [6], 200 µg/mL.
For `CCOc1ccccc1OCCn1c[n+](Cc2cccc(OC)c2)c2ccccc21.[Cl-]`, the MIC in assay [1], in assay [2], in assay [3], in assay [4], in assay [5] and in assay [6] was 800 µg/mL each time.
Consider `CCOc1ccccc1OCCn1c[n+](Cc2ccc(C(C)C)cc2)c2ccccc21.[Br-]`, for which the MIC was 800 µg/mL in assay [1]; 800 µg/mL in assay [2]; 400 µg/mL in assay [3]; 800 µg/mL in assay [4]; 400 µg/mL in assay [5]; 800 µg/mL in assay [6].

A word on the MIC: it is the least concentration at which growth counts as inhibited. A higher MIC goes with a less susceptible organism.
